# Measurements from PMC6199744, “Development of Chemical Proteomics for the Folateome and Analysis of the Kinetoplastid Folateome” (ACS Infectious Diseases, 2018).
# Read-outs that look alike come from different tables or passages of the source.
# Experiments:
# [1] = test system: phenylalanine-4-hydroxylase (PAH); test: Multitargeted bead mixture competition; format: binding, L. major; settings: for fold change vs vehicle control: protein LMJF.28.1280 PHENYLALANINE-4-HYDROXYLASE,PHENYLALANINE-4-HYDROXYLASE, PUTATIVE; for binding and competition to phenylalanine-4-hydroxylase (PAH): bead mixture, L. major lysate; for fold change: protein LMJF.28.1280 PHENYLALANINE-4-HYDROXYLASE, vehicle control = 1
# [2] = biological target: T1, MTHF complex (DHCH protein in humans) (Homo sapiens, UniProt P11586); test: Multitargeted bead mixture competition, HeLa cell extract; format: binding
# T1 sequence (P11586 1-935): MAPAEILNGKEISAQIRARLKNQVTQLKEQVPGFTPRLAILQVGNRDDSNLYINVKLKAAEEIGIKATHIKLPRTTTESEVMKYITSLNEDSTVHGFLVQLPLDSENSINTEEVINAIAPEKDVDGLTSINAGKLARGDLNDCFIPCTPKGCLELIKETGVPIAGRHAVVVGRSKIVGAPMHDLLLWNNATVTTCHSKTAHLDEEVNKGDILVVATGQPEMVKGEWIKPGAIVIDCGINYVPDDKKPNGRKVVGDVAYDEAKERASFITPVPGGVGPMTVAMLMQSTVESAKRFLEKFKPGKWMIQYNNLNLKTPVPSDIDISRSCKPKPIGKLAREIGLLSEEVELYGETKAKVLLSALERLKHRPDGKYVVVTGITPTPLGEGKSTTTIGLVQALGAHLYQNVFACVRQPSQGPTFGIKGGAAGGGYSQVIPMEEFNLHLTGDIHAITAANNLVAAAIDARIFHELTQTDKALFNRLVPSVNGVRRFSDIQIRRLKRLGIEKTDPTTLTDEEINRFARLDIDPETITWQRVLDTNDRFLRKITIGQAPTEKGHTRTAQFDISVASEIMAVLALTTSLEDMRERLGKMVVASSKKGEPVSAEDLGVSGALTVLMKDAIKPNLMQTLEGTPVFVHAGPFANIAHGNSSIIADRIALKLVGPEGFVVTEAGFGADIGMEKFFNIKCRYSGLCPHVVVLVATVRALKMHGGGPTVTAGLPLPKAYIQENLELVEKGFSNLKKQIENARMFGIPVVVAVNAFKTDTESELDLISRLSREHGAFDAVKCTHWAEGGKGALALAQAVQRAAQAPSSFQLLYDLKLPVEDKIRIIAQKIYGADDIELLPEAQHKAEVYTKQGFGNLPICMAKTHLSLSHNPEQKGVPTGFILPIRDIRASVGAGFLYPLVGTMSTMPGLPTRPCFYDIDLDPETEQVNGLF
# PTR1 = biological target: T2, PTR1 (Leishmania major, UniProt Q01782); format: binding; parameters: endogenous in cells; host or cells: L. major Friedlin promastigote lysate
# T2 sequence (Q01782 1-288): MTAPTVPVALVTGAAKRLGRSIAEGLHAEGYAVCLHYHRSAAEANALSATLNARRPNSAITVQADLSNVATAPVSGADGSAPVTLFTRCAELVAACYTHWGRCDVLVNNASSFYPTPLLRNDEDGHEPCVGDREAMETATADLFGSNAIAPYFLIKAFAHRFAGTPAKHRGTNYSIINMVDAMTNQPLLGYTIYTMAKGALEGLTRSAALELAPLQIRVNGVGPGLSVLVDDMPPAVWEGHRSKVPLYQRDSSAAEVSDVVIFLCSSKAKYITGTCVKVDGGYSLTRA
# methylene-THF-reductase = methylene-THF-reductase (Homo sapiens, UniProt P42898); test: Multitargeted bead mixture competition, HeLa cell extract; format: binding
# Chain of methylene-THF-reductase (P42898 whole entry): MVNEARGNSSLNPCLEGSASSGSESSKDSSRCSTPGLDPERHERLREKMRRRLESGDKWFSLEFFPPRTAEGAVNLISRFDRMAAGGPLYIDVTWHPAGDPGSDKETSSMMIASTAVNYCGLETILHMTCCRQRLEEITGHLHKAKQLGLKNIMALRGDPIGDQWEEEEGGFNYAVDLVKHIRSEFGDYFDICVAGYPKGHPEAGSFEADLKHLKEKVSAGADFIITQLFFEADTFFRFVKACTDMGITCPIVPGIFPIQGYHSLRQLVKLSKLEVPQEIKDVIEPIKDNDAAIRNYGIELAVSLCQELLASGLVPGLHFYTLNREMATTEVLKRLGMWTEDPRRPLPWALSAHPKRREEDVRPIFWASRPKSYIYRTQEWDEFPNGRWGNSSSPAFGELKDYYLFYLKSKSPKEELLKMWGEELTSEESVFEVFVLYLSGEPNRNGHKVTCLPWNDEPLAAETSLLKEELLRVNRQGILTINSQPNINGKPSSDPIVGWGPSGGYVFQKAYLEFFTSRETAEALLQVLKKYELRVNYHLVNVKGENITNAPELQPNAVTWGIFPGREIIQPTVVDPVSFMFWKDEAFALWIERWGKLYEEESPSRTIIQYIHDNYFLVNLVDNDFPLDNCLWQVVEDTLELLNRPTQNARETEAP
# [3] = biological target: T3, HeLa cell extract proteins (Homo sapiens, UniProt P11413); format: binding
# T3 construct: endogenous in cells; host or cells: HeLa cell extract
# T3 sequence (P11413 whole entry): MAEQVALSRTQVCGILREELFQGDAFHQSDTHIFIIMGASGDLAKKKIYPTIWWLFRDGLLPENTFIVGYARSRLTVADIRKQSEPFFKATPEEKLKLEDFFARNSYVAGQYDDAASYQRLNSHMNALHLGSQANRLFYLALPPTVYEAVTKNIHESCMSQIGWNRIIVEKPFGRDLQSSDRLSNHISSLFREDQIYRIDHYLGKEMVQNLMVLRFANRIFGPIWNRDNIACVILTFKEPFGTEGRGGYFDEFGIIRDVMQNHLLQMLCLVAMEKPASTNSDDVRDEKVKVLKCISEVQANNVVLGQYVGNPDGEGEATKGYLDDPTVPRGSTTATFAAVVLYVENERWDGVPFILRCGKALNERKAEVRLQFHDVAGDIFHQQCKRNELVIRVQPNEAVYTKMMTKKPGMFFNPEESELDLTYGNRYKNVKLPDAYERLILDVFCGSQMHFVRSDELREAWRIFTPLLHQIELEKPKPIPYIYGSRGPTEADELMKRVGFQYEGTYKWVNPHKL
# [4] = biological target: T4, HeLa cell extract proteins (Homo sapiens, UniProt P14625); format: binding
# T4 construct: endogenous in cells; host or cells: HeLa cell extract
# T4 sequence (P14625 22-803): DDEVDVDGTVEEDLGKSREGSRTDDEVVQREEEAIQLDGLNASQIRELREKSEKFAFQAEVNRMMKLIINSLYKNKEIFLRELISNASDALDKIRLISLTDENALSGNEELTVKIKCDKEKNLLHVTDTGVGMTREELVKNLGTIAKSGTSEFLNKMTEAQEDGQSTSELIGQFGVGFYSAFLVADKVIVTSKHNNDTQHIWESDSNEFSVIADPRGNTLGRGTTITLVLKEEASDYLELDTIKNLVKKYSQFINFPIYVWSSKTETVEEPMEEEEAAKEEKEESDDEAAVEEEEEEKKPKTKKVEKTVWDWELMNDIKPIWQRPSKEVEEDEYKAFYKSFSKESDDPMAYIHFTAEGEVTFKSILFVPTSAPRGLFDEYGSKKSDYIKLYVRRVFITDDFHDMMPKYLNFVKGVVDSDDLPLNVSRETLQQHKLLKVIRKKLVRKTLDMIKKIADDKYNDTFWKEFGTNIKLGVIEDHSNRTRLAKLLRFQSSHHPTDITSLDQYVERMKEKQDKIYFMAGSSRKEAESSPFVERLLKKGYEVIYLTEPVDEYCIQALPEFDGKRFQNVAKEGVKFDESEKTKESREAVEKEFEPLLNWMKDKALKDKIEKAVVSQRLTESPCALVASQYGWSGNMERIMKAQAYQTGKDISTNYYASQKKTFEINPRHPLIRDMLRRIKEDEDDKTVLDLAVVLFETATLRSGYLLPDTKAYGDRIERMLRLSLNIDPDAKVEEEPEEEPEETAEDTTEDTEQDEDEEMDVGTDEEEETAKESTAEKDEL
# [5] = biological target: T5, HeLa cell extract proteins (Homo sapiens, UniProt O15162); format: binding
# T5 construct: endogenous in cells; host or cells: HeLa cell extract
# T5 sequence (O15162 1-318): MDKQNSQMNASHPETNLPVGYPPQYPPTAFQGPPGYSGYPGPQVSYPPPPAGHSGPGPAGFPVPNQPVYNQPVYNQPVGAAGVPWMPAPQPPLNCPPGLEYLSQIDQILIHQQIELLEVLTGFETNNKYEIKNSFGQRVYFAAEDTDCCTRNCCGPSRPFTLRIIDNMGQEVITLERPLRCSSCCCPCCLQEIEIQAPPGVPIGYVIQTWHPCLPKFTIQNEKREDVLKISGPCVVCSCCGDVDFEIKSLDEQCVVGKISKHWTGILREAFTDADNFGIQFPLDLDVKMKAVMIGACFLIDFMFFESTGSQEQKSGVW
# [6] = biological target: T6, HeLa cell extract proteins (Homo sapiens, UniProt P26639); format: binding
# T6 construct: endogenous in cells; host or cells: HeLa cell extract
# T6 sequence (P26639 1-723): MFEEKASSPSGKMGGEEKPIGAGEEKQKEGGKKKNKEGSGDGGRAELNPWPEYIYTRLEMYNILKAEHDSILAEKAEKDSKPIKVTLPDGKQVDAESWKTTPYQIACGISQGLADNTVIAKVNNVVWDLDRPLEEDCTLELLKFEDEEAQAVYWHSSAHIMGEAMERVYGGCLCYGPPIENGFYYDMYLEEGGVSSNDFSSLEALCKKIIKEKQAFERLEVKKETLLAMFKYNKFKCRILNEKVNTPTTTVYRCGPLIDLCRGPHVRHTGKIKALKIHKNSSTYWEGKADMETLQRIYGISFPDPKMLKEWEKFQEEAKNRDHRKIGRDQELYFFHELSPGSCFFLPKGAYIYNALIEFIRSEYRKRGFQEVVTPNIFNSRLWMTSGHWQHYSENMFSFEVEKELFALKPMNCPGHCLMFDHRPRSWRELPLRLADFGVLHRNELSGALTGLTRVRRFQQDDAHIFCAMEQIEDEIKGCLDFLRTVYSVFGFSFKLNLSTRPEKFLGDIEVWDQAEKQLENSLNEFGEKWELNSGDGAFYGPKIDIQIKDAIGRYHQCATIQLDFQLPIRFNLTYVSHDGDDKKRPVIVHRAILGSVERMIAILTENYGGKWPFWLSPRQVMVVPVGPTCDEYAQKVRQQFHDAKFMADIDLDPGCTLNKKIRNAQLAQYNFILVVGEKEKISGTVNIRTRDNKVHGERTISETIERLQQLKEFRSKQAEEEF
# [7] = biological target: T. brucei lysate proteins (Trypanosoma brucei brucei, UniProt P23799); format: binding; settings: for fold change - vehicle control: protein PUTATIVE ADENYLATE CYCLASE […] (ESAG8) (CZT00028390.1)
# Chain of T. brucei lysate proteins (Trypanosoma brucei brucei, UniProt P23799) (P23799 whole entry): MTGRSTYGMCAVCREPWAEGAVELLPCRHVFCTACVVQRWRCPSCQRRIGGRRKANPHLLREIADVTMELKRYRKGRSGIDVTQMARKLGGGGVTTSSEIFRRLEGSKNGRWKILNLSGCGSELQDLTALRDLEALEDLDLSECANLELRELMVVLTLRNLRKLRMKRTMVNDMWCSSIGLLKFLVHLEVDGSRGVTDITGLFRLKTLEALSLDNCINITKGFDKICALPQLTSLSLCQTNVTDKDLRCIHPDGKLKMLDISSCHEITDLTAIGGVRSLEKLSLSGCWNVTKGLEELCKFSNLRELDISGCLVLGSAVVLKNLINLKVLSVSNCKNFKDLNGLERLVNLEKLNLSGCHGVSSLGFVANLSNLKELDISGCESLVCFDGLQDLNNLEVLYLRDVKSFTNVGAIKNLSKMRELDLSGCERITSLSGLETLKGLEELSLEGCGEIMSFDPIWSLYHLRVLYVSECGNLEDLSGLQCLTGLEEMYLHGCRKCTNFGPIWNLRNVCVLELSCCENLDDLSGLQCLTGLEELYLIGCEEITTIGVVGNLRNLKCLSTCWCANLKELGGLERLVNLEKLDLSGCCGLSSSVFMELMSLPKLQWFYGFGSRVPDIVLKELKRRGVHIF
# [8] = biological target: T. brucei lysate proteins (Trypanosoma brucei brucei, UniProt P04789); format: binding
# Chain of T. brucei lysate proteins (Trypanosoma brucei brucei, UniProt P04789) (P04789 whole entry): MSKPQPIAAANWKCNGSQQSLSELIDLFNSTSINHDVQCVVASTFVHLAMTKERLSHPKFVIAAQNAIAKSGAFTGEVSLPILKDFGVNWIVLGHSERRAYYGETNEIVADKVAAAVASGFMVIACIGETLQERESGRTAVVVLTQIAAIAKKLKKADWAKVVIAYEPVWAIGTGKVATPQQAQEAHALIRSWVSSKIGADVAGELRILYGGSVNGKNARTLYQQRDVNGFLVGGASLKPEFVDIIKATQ
# [9] = HeLa, captured protein MTHFD1 (105 KDA PROTEIN.)
# [10] = vs vehicle control, protein LMJF.23.0270 PTERIDINE REDUCTASE 1
# [11] = protein CZT00028390.1 PUTATIVE ADENYLATE CYCLASE […] (ESAG8), vehicle control = 1
# [12] = protein TB427TMP.02.3210 TRIOS[…], vehicle control = 1
# [13] = LMJF.23.0270 PTERIDINE REDUCTASE 1, vehicle control = 1
# [14] = protein TB427TMP.02.3210 TRIOS[…]
Structure (SMILES),fold change vs vehicle control [1],"fold changes relative to vehicle control [2, 9]",fold change (PTR1; [10]),"fold changes relative to vehicle control (methylene-THF-reductase; protein MTHFR, HeLa)","fold changes relative to vehicle control ([3]; HeLa, protein G6PD)","fold changes relative to vehicle control ([4]; HeLa, protein HSP90B1)","fold changes relative to vehicle control ([5]; HeLa, captured protein PLSCR1)","fold changes relative to vehicle control ([6]; HeLa, protein TARS)","fold change vs vehicle control [7, 11]","fold change vs vehicle control [8, 12]",fold change [1],"fold changes relative to vehicle control ([2]; HeLa, protein MTHFD1)",fold change (PTR1; [13]),"fold changes relative to vehicle control (methylene-THF-reductase; captured protein MTHFR, HeLa)","fold changes relative to vehicle control ([3]; protein G6PD, HeLa)","fold changes relative to vehicle control ([5]; HeLa, protein PLSCR1)","fold changes relative to vehicle control ([6]; protein TARS, HeLa)",fold change - vehicle control [7],"fold change - vehicle control [8, 14]",also measured
"Nc1nc2c(c(=O)[nH]1)N(C=O)C(CNc1ccc(C(=O)N[C@@H](CCC(=O)O)C(=O)O)cc1)CN2 (stereo partly shown) [LEU, leucovorin]",0.99,0.61,1.04,0.52,1.12,1.04,1.01,1.03,1.17,2.16,–,–,–,–,–,–,–,–,–,–
"Nc1nc2[nH]cc(CCc3ccc(C(=O)N[C@@H](CCC(=O)O)C(=O)O)cc3)c2c(=O)[nH]1 [PTX, pemetrexed]",0.28,–,–,–,–,–,–,–,–,–,–,–,–,–,–,–,–,–,–,binding and competition to phenylalanine-4-hydroxylase (PAH) [1]: binding and competition; fold changes relative to vehicle control [2]: 0.72; fold change (PTR1): 0.52; fold changes relative to vehicle control (methylene-THF-reductase): 0.47; fold changes relative to vehicle control [3]: 1.21; fold changes relative to vehicle control [4]: 1.14; fold changes relative to vehicle control [5]: 0.96; fold changes relative to vehicle control [6]: 1.02; fold change vs vehicle control [7]: 1.01; fold change vs vehicle control [8]: 0.63
CCCCCCOc1ccc(Cc2cnc(N)nc2N)cc1 [compound 1],–,–,–,–,–,–,–,–,–,–,1.16,0.05,1.1,0.27,1.15,1.02,1.27,1.15,0.88,"fold changes relative to vehicle control ([4]; HeLa, protein HSP90B1 (E[…].)): 1.35 fold"
CCCCCCOc1cccc(Cc2cnc(N)nc2N)c1 [compound 2],–,–,–,–,–,–,–,–,–,–,1.1,0.84,1.13,0.58,1.89,0.86,2.02,0.97,0.98,"fold changes relative to vehicle control ([4]; HeLa, protein HSP90B1 (ENDOPLASMIN PRECURSOR.)): 2.51 fold"
Nc1nc2cccc(-c3ccccc3)c2n1Cc1ccc(Cl)c(Cl)c1 [compound 3],–,–,–,–,–,–,–,–,–,–,0.81,1.01,0.99,1.06,1.03,0.98,0.98,0.98,0.75,"binding and competition to phenylalanine-4-hydroxylase (PAH) [1]: binding and competition; competition for PTR1 (Figure 8a) (PTR1; bead mixture, L. major lysate): no inhibition of PTR1; fold changes relative to vehicle control ([4]; HeLa, protein HSP90B1 (E[…].)): 0.91 fold"
NCCOCCOCC(=O)Nc1nc2ncc(CNc3ccc(C(=O)NC(CCC(=O)O)C(=O)O)cc3)nc2c(=O)[nH]1 (stereo not shown) [compound 6],0.99,0.92,0.98,0.84,1.32,1.18,0.96,1.12,1.1,1.54,–,–,–,–,–,–,–,–,–,–
NCCCNc1ccc(C(=O)NC(CCC(=O)O)C(=O)O)cc1 (stereo not shown) [compound 7],1.02,1,1.02,1,1.09,0.89,1.07,0.97,0.95,1.05,–,–,–,–,–,–,–,–,–,–
